target: Prostaglandin G/H synthase 2 / COX-2 (Ovis aries) (UniProt P79208); test: Inhibition of sheep COX2

`CS(=O)(=O)c1ccc(-c2cc(C(=O)O)c3cccc(C(=O)c4ccccc4)c3n2)cc1` [8-benzoyl-2-(4-(methylsulfonyl)phenyl)quinoline-4-carboxylic acid] and `CS(=O)(=O)c1ccc(-c2cc(C(=O)O)c3cc(C(=O)c4ccccc4)ccc3n2)cc1` [6-benzoyl-2-(4-(methylsulfonyl)phenyl)quinoline-4-carboxylic acid] are within 1.5-fold of each other in IC50: 0.069 µM for the first, 0.077 µM for the second.

`[N-]=[N+]=Nc1ccc(-c2cc(C(=O)O)c3cccc(C(=O)c4ccccc4)c3n2)cc1` [2-(4-azido)phenyl)-8-benzoyl-quinoline-4-carboxylic acid] and `[N-]=[N+]=Nc1ccc(-c2cc(C(=O)O)c3cc(C(=O)c4ccccc4)ccc3n2)cc1` [2-(4-azido)phenyl)-6-benzoyl-quinoline-4-carboxylic acid] are within 1.5-fold of each other in IC50: 0.057 µM for the first, 0.077 µM for the second.

`CC(=O)Nc1ccc(-c2cc(C(=O)O)c3cc(C(=O)c4ccccc4)ccc3n2)cc1` [2-(4-acetamido)phenyl)-6-benzoyl-quinoline-4-carboxylic acid] and `CC(=O)Nc1ccc(-c2cc(C(=O)O)c3cccc(C(=O)c4ccccc4)c3n2)cc1` [2-(4-acetamido)phenyl)-8-benzoyl-quinoline-4-carboxylic acid] are within 1.5-fold of each other in IC50: 0.085 µM for the first, 0.08 µM for the second.

target: Prostaglandin G/H synthase 1 / COX-1 (Ovis aries) (UniProt P05979); test: Inhibition of sheep COX1

Compared with `CS(=O)(=O)c1ccc(-c2cc(C(=O)O)c3cccc(C(=O)c4ccccc4)c3n2)cc1` [8-benzoyl-2-(4-(methylsulfonyl)phenyl)quinoline-4-carboxylic acid], `CS(=O)(=O)c1ccc(-c2cc(C(=O)O)c3cc(C(=O)c4ccccc4)ccc3n2)cc1` [6-benzoyl-2-(4-(methylsulfonyl)phenyl)quinoline-4-carboxylic acid] is 1.5-fold higher in IC50: 15.9 µM for the first, 24.4 µM for the second. The first is the more potent here.

Going from `CS(=O)(=O)c1ccc(-c2cc(C(=O)O)c3ccccc3n2)cc1` [2-(4-(methylsulfonyl)phenyl)-quinoline-4-carboxylic acid] to `CC(=O)Nc1ccc(-c2cc(C(=O)O)c3cc(C(=O)c4ccccc4)ccc3n2)cc1` [2-(4-acetamido)phenyl)-6-benzoyl-quinoline-4-carboxylic acid], the IC50 rises from 13.4 µM to 21.8 µM (1.6-fold). The first is the more potent here.

Going from `[N-]=[N+]=Nc1ccc(-c2cc(C(=O)O)c3cccc(C(=O)c4ccccc4)c3n2)cc1` [2-(4-azido)phenyl)-8-benzoyl-quinoline-4-carboxylic acid] to `[N-]=[N+]=Nc1ccc(-c2cc(C(=O)O)c3cc(C(=O)c4ccccc4)ccc3n2)cc1` [2-(4-azido)phenyl)-6-benzoyl-quinoline-4-carboxylic acid], the IC50 rises from 65.5 µM to > 100 µM. The first is the more potent here.

Compound `CC(=O)Nc1ccc(-c2cc(C(=O)O)c3cccc(C(=O)c4ccccc4)c3n2)cc1` [2-(4-acetamido)phenyl)-8-benzoyl-quinoline-4-carboxylic acid] has an IC50 of 9.2 µM.
